Like-named read-outs stand apart in the source and are kept apart here. Marks after values point to notes of the source that are not given here.
Experiments:
[1] = tested on: DMN induced hepatic fibrosis; assay: animal or person
Description: Plasma gamma-glutamyl transpeptidase (gamma-GT) activity and bilirubin content are used as indicators of hepatic functionality.
Each value is represented by the average ± standard deviation. The number of animals used ranged from 8 to 16. The significance of each group was indicated by the Newman-Keuls test of multiple analysis. The significance markers are: *=p<0.05 compared to control, #=p<0.05 compared to DMN treated group.
The anti-fibrotic activity of the oltipraz/DDB combination was evaluated by changing the component ratio of the combination. To evaluate the effect of the combination according to the component ratio, the dosage schedule of DMN was partially modified. That is, while DMN was administered to a rat 12 times totally in dosages of 10 μl/kg per administration over a 4-week period, 3 times a week in the test examples 1 and 2, to evaluate the effect of the combination according to the component ratio, an animal model with reduced liver damage was used wherein DMN was administered to a rat 9 times totally in dosages of 10 μl/kg per administration over a 3-week period, 3 times a week, and then not administered in the remaining one week in the test example.

[2] = tested on: DMN induced hepatic fibrosis; details: 3 times a week; for Fibrosis Values: score 0-4
Protocol: The degree of fibrosis was determined by evaluating the fibrosis and Knodell scores, which show degrees of liver damage and fibrosis.
Each value is represented by the average ± standard deviation. The number of animals used was 8 to 16. The significance of each group is determined by the Newman-Keuls test of multiple analysis. *p<0.05, **p<0.01. Degree of fibrosis 0=Normal, 1=Presence of weak fibrous tissue, 2=Moderate presence of fibrous tissue, 3=Obvious presence of fibrous tissue, 4=Evidence of severe fibrosis. Sum of values from periportal bridging (Greatest=10), intralobular cell loss (Greatest=4), portal inflammation (Greatest=4), and fibrosis (Greatest=4) yields the Knodell score.

[3] = tested on: TGF-β expression in RAW264.7 macrophage cells; assay: Inhibition of TGF-β expression in RAW264.7 macrophage cells; format: cell-based
TGF-β mRNA expression = assay: Effect of oltipraz/DDB combinations on TGF-β mRNA expression (quantitative RT-PCR) in DMN-administered animals; format: in vivo
Description: As addressed above, TGF-β is a cytokine that causes hepatic fibrosis and is known to be associated with hepatic fibrosis development.
However, as the DDB to oltipraz ratio increases, the inhibition of TGF-β expression is progressively lost. In the animal group administered with DDB alone, TGF-β expression was not inhibited. Therefore, inhibition of TGF-β expression is considered to be caused by oltipraz. On this ground, the best combination ratio of oltipraz to DDB is 5:1 (Table 9).

TGF-β 1 mRNA expression = details: liver tissue; 100 mg/kg oltipraz given 18 hours after DMN, observed 24 hours later
NF-κB activation = assay: LPS-inducible NF-κB activation in rat liver (EMSA); format: in vivo; details: 2 h prior to LPS
Protocol: It is known that NF-κB activation is associated with inflammatory responses. To compare the NF-κB activity in the liver tissue when DDB is administered with that when DDB is not administered, the following test was conducted. SD male rats with weight of about 150 g were used. For one group 7 rats were used. For the control group (vehicle administered) and test group (20 to 100 mg/kg/day of DDB administered), the NF-κB activity in accordance with the treatment of endotoxin (lipopolysaccharide, LPS) was measured by using Electrophoresis Mobility Shift Assay (EMSA).

[4] = tested on: NF-κB activation in Raw264.7 cells; assay: LPS-induced NF-κB DNA binding activity in Raw264.7 cells; format: cell-based
Protocol: Stimulation of Raw264.7 cells with […] of LPS caused an increase in DNA binding activity of NF-κB after 30 min to 1 h. DDB at the concentrations of 0.1, 0.3 and 1 mM inhibited NF-κB activity in a concentration-dependent manner.

I-κBα degradation = I-κBα degradation after LPS in rats; format: in vivo, rat; details: LPS 1 μg/kg + DDB 100 mg/kg, 2 h prior to LPS
Protocol: (§1) Translocation of NF-κB to the nucleus was preceded by phosphorylation and proteolytic degradation of the I-κBα subunit. This test was conducted in order to ascertain whether the effect of DDB on NF-κB activation is associated with the inhibition of I-κBα degradation. The level of I-κBα protein was reduced 30 min after the treatment of rats with LPS (1 μg/kg). In contrast, treatment with DDB 2 h prior to LPS treatment attenuated the decrease in I-κBα protein by LPS. Also with RAW264.7 cells, DDB inhibited the degradation of I-κBα protein in a concentration-dependent manner at the concentrations of 0.3 to 1 mM.

[5] = tested on: I-κBα degradation in RAW264.7 cells; assay: I-κBα degradation after LPS in RAW264.7 cells; format: cell-based
Protocol: as §1

TNF-α production = assay: Plasma TNF-α after LPS in rats (ELISA); format: in vivo, rat; details: for plasma TNF-α level: LPS 1 μg/kg i.v., 2 h after administration; for % inhibition of LPS-induced plasma TNF-α elevation: Table 6, TNF-α production in plasma
Protocol: (§2) TNF-α is the principal mediator of the responses to LPS and is involved in inflammatory processes. It was determined by ELISA whether the amount of TNF-α released into blood decreases when NF-κB activity was inhibited by DDB. A single dose of LPS treatment (1 μg/kg, i.v.) increased the TNF-α level from 35 to 5160 pg per ml of plasma 2 h after administration. DDB treatment at a dose of 20, 50 or 100 mg/kg prevented the elevation of plasma TNF-α level by LPS, resulting in 1350, 1230 or 690 pg per ml of plasma, respectively. With the RAW264.7 cells, DDB decreased the production of TNF-α by LPS.

[6] = tested on: TNF-α production in RAW264.7 cells; assay: TNF-α production by LPS in RAW264.7 cells; format: cell-based; details: Table 6, TNF-α production; LPS + DDB 1.0 mg/kg as printed
Protocol: as §2

[7] = plasma, DMN 4 weeks + Oltipraz 50 mg/kg
[8] = DMN 4 weeks + Oltipraz 5 mg/kg oral
[9] = DMN 4 weeks + Oltipraz 15 mg/kg oral
[10] = DMN 4 weeks + Oltipraz 50 mg/kg oral

Cc1c(-c2cnccn2)ssc1=S [Oltipraz, 5-(2-pyrazinyl)-4-methyl-1,2-dithiol-3-thione]
inhibition percentage of ALT increase by DMN ([1]; 50 mg/kg of oltipraz administered alone (stated in Test Example 7)): 40%
inhibition at 50 mg/kg ([1]; Rattus norvegicus, read-out: inhibition of plasma bilirubin increase): 65%
ALT [1, 7]: 116 ± 4^#
AST [1, 7]: 246 ± 32^#
Bilirubin [1, 7]: 0.3 ± 0.03^#
gamma-GT [1, 7]: 2.6 ± 0.5^#
Knodell Values [2, 8]: 11.1 ± 1.7*
Fibrosis Values [2, 8]: 3.1 ± 0.4*
Knodell Values [2, 9]: 12.1 ± 1.9*
Fibrosis Values [2, 9]: 2.9 ± 0.8*
Knodell Values [2, 10]: 8.0 ± 1.6**
Fibrosis Values [2, 10]: 2.5 ± 0.9**
inhibition at 30 µM ([3]; Mus musculus, Oltipraz 30 μM, read-out: TGF-β Inhibition Percentage (%)): 30%
inhibition at 100 µM ([3]; Mus musculus, Oltipraz 100 μM, read-out: TGF-β Inhibition Percentage (%)): 60%
TGF-β expression (result in words) (TGF-β mRNA expression; DMN + 30 mg/kg of oltipraz): completely inhibited
% Inhibition of TGF-β mRNA expression (TGF-β mRNA expression; DMN + oltipraz 30 mg/kg): 65%
DMN induced expression of TGF-β 1 mRNA (TGF-β 1 mRNA expression): completely inhibited

COC(=O)c1cc(OC)c2c(c1-c1c(C(=O)OC)cc(OC)c3c1OCO3)OCO2 [DDB, dimethyl-4,4′-dimethoxy-5,6,5′,6′-dimethylene dioxybiphenyl-2,2′-dicarboxylate]
% inhibition of NF-κB activation (NF-κB activation; LPS 1 μg/kg + DDB 20 mg/kg): 42%
% inhibition of NF-κB activation (NF-κB activation; LPS 1 μg/kg + DDB 50 mg/kg): 63%
% inhibition of NF-κB activation (NF-κB activation; LPS 1 μg/kg + DDB 100 mg/kg): 73%
% inhibition of NF-κB activation ([4]; LPS 1 μg/ml + DDB 0.1 mM): 33%
% inhibition of NF-κB activation ([4]; LPS 1 μg/ml + DDB 0.3 mM): 35%
% inhibition of NF-κB activation ([4]; LPS 1 μg/ml + DDB 1.0 mM): 65%
% inhibition of I-κBα degradation (I-κBα degradation): 67%
% inhibition of I-κBα degradation ([5]; LPS 1 μg/ml + DDB 0.1 mM): 22%
% inhibition of I-κBα degradation ([5]; LPS 1 μg/ml + DDB 0.3 mM): 34%
% inhibition of I-κBα degradation ([5]; LPS 1 μg/ml + DDB 1.0 mM): 65%
plasma TNF-α level (TNF-α production; DDB 20 mg/kg): 1350 pg per ml of plasma
plasma TNF-α level (TNF-α production; DDB 50 mg/kg): 1230 pg per ml of plasma
plasma TNF-α level (TNF-α production; DDB 100 mg/kg): 690 pg per ml of plasma
% inhibition of LPS-induced plasma TNF-α elevation (TNF-α production; LPS 1 μg/kg + DDB 20 mg/kg): 74%
% inhibition of LPS-induced plasma TNF-α elevation (TNF-α production; LPS 1 μg/kg + DDB 50 mg/kg): 76%
% inhibition of LPS-induced plasma TNF-α elevation (TNF-α production; LPS 1 μg/kg + DDB 100 mg/kg): 87%
% inhibition of TNF-α production [6]: 65%
% Inhibition of TGF-β mRNA expression (TGF-β mRNA expression; DMN + DDB 30 mg/kg): 0%
TGF-β expression (result in words) (TGF-β mRNA expression; DMN + DDB alone): not inhibited

O=c1c(-c2ccc(O)cc2)coc2cc(O)cc(O)c12 [Genistein, genistein]
inhibition at 100 µM ([3]; Mus musculus, Genistein 100 μM, read-out: TGF-β Inhibition Percentage (%)): 80%

O=C(O)CN(CCOCCOCCN(CC(=O)O)CC(=O)O)CC(=O)O [EGTA]
TGF-β Inhibition Percentage (%) ([3]; EGTA 1 mM): 80%
